These results are taken from patent publication US11072612B2, “NLRP3 modulators” (INNATE TUMOR IMMUNITY, INC., priority 2016, dated 2021).

Format in all cases: cell-based
One assay deals with T1, TLR7 (Homo sapiens, UniProt Q9NYK1).
T1 sequence (Q9NYK1 27-1049): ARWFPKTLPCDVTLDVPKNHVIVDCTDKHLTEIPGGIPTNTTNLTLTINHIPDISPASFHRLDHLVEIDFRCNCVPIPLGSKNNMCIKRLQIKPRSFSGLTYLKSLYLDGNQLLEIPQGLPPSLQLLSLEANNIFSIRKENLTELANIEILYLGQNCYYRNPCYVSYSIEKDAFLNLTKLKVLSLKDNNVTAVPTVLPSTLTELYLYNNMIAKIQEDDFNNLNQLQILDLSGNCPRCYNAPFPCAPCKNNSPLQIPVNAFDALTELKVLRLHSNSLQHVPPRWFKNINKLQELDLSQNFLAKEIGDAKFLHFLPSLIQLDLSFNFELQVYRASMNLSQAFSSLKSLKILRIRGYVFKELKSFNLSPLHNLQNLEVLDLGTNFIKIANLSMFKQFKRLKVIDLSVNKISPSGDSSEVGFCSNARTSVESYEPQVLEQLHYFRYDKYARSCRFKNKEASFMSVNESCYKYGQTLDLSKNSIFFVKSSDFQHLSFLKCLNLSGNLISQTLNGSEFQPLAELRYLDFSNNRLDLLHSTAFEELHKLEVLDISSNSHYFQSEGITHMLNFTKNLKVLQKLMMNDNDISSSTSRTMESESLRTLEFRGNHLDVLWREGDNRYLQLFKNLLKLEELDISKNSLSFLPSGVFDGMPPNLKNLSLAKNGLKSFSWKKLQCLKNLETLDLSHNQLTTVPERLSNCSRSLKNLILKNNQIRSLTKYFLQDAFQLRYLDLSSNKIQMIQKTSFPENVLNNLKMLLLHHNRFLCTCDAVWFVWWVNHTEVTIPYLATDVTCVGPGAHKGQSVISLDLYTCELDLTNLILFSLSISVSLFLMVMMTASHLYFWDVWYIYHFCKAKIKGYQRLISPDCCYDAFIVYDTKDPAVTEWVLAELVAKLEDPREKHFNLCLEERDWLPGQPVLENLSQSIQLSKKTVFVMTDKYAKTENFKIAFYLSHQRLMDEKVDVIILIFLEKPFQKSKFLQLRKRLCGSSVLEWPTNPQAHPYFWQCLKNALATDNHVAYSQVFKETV
The assay is described as follows: TLR7 EC50 assay. As to conditions: Table 2.

The target in a further assay is T2, hNLRP3 (Homo sapiens, UniProt Q96P20).
T2 construct: THP-1 cells were purchased from the American Type Culture Collection; host or cells: THP-1 cells, PMA-differentiated
T2 sequence (Q96P20 whole entry): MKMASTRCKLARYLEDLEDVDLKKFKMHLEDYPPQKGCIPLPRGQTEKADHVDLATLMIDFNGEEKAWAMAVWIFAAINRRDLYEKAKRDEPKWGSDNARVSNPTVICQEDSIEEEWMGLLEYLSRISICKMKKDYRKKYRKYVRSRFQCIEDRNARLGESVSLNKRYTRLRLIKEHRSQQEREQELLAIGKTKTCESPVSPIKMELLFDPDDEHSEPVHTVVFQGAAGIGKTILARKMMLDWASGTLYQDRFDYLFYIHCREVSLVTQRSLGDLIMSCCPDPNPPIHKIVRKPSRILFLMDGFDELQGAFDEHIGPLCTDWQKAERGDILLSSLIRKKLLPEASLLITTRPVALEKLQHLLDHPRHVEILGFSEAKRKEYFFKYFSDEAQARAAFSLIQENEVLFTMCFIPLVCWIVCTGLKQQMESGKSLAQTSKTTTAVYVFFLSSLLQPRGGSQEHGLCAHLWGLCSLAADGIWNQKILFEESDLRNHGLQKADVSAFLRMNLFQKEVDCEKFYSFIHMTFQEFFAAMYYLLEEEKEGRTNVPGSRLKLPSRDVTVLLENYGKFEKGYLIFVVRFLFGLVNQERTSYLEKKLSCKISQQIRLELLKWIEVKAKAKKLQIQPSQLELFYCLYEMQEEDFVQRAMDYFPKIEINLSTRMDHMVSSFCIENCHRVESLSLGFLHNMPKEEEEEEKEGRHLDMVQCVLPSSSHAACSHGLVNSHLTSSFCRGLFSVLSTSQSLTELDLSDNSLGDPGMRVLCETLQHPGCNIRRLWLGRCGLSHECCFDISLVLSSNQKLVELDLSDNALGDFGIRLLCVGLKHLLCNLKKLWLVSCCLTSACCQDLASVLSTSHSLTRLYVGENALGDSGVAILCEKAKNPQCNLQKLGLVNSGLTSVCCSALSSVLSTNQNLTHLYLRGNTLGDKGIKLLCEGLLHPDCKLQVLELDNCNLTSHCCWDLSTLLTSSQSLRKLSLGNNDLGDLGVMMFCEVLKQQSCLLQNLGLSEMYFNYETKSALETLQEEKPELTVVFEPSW
The assay is described as follows: hNLRP3 agonist assay: IL-1β production in PMA-differentiated THP-1 cells (ELISA). The note with it: Table 2, 4 hours, IL-1β by ELISA. Background: An ELISA detects its analyte on a solid surface through an enzyme-linked reagent.

The next assay has as its target T3, TLR8 (Homo sapiens, UniProt Q9NR97).
T3 sequence (Q9NR97 27-1041): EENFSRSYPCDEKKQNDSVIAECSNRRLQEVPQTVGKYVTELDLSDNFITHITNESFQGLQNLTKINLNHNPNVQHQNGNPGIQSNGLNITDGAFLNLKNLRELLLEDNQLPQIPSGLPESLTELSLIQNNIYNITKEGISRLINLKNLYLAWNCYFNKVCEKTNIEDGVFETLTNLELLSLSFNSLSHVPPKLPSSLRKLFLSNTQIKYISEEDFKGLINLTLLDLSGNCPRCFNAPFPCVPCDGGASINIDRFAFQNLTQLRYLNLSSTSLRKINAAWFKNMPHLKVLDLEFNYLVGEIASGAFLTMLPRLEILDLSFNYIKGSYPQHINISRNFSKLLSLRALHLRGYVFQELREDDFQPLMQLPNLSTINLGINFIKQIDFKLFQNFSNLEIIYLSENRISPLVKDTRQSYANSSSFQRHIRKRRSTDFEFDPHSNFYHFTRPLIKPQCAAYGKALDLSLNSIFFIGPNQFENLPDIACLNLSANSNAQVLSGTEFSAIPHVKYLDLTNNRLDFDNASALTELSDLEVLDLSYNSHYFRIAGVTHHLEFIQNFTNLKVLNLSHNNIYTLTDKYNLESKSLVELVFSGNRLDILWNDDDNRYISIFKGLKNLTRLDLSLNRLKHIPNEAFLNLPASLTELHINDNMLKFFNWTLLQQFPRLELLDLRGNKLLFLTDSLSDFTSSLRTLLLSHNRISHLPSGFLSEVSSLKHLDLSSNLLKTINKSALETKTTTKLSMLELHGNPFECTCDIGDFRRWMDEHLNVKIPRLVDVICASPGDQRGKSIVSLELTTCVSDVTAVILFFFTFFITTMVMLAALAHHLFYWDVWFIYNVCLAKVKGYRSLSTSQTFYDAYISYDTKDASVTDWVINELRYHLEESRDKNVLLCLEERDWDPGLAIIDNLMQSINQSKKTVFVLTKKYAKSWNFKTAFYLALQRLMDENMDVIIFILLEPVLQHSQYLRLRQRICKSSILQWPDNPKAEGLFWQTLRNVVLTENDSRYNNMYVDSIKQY
The experiment in a line: TLR8 EC50 assay. The note with it: Table 2.

One may read the EC50 as the midpoint of the concentration-response curve. On to `CC(C)(C)OC(=O)N1CCC(c2nc3c(N)nc4cc(-n5cccn5)ccc4c3[nH]2)CC1` [Compound 218], for which the concentration for a half-maximal effect (EC50) on TLR7 is more than 100 µM; on hNLRP3 it was not above 1 µM; on TLR8 it was more than 100 µM.

Take `Nc1nc2cc(Br)ccc2c2[nH]c([C@H]3CC[C@@H](O)CC3)nc12` [Compound 122]: the figures for the EC50 on TLR7, on hNLRP3 and at TLR8 were more than 100 µM, 1 to 20 µM and more than 100 µM, respectively.

`CCc1ccc2c(c1)nc(N)c1nc(CCCO)[nH]c12` [Compound 162, 3-(4-amino-7-ethyl-1H-imidazo[4,5-c]quinolin-2-yl)propan-1-ol]: the EC50 on TLR7 was in the range of 20 to 100 µM; at hNLRP3, 1 to 20 µM; on TLR8, 20 to 100 µM.

In the case of `COc1cccc(-c2ccc3c(c2)nc(N)c2nc(CCCO)[nH]c23)c1` [Compound 206, 3-[4-amino-7-(3-methoxyphenyl)-1H-imidazo[4,5-c]quinolin-2-yl]propan-1-ol], the EC50 on TLR7, at hNLRP3 and on TLR8 was more than 100 µM throughout.

Turning to `CC(C(N)=O)c1ccc2c(c1)nc(N)c1nc(CCCO)[nH]c12` (stereo not drawn) [Compound 120], the EC50 at TLR7 was more than 100 µM; on hNLRP3, 1 to 20 µM; on TLR8, more than 100 µM.

As for `CCN(C(C)=O)C(C)c1nc2c(N)nc3cc(-c4cc[nH]n4)ccc3c2[nH]1` (stereo not drawn) [Compound 241], the values for the EC50 on TLR7, at hNLRP3 and on TLR8 were more than 100 µM, 1 to 20 µM and more than 100 µM, respectively.

`Nc1nc2cc(Oc3ccccc3)ccc2c2[nH]c(CCCO)nc12` [Compound 163, 3-(4-amino-7-phenoxy-1H-imidazo[4,5-c]quinolin-2-yl)propan-1-ol]: the values for the EC50 on TLR7, at hNLRP3 and at TLR8 were more than 100 µM, 20 to 100 µM and more than 100 µM, respectively.

As for `Nc1nc2cc(-n3ccnc3)ccc2c2[nH]c(CCCO)nc12` [Compound 179, 3-(4-amino-7-imidazol-1-yl-1H-imidazo[4,5-c]quinolin-2-yl)propan-1-ol], the EC50 at TLR7, at hNLRP3 and at TLR8 was more than 100 µM in each case.

With `Cn1c(CCCO)nc2c(N)nc3cc(-c4cc[nH]n4)ccc3c21` [Compound 107], the EC50 at TLR7 is more than 100 µM; on hNLRP3, not above 1 µM; on TLR8, more than 100 µM.

In the case of `CCCn1cc(-c2ccc3c(c2)nc(N)c2nc(CCCO)[nH]c23)cn1` [Compound 153, 3-[4-amino-7-(1-propylpyrazol-4-yl)-1H-imidazo[4,5-c]quinolin-2-yl]propan-1-ol], the EC50 was more than 100 µM on TLR7, 1 to 20 µM at hNLRP3 and more than 100 µM on TLR8.

As to `Nc1nc2cc(-c3cc[nH]n3)ccc2c2[nH]c(CCCO)nc12` [Compound 189, 3-[4-amino-7-(1H-pyrazol-3-yl)-1H-imidazo[4,5-c]quinolin-2-yl]propan-1-ol], the EC50 is more than 100 µM on TLR7, not above 1 µM on hNLRP3 and more than 100 µM at TLR8.

Turning to `CC(C(=O)O)c1ccc2c(c1)nc(N)c1nc(CCCO)[nH]c12` (stereo not drawn) [Compound 117], the 50% effective concentration (EC50) on TLR7 is more than 100 µM; at hNLRP3, 1 to 20 µM; on TLR8, more than 100 µM.

Turning to `CC(=O)NCCCn1c(C2CCN(C(=O)c3ccccc3)CC2)nc2c(N)nc3cc(Br)ccc3c21` [Compound 227], the EC50 on TLR7 is more than 100 µM; at hNLRP3, 20 to 100 µM; on TLR8, more than 100 µM.

Regarding `Nc1nc2cc(-c3ccncc3)ccc2c2[nH]c(CCCOCc3ccccc3)nc12` [Compound 148, 2-(3-phenylmethoxypropyl)-7-pyridin-4-yl-1H-imidazo[4,5-c]quinolin-4-amine], the results for the EC50 at TLR7, at hNLRP3 and on TLR8 were more than 100 µM, 20 to 100 µM and more than 100 µM, respectively.

Turning to `Nc1nc2cc(-c3ccsc3)ccc2c2[nH]c(CCCO)nc12` [Compound 186, 3-(4-amino-7-thiophen-3-yl-1H-imidazo[4,5-c]quinolin-2-yl)propan-1-ol], the EC50 is more than 100 µM on TLR7, not above 1 µM on hNLRP3 and more than 100 µM on TLR8.

With `Nc1nc2cc(Br)c(F)cc2c2[nH]c(CCCO)nc12` [Compound 118], the results for the EC50 on TLR7, on hNLRP3 and at TLR8 were more than 100 µM, 1 to 20 µM and more than 100 µM, respectively.

On to `Nc1nc2cc(-c3cnc4ccccc4c3)ccc2c2[nH]c(CCCO)nc12` [Compound 191, 3-(4-amino-7-quinolin-3-yl-1H-imidazo[4,5-c]quinolin-2-yl)propan-1-ol], for which the EC50 at TLR7, on hNLRP3 and at TLR8 was more than 100 µM throughout.

In the case of `Nc1nc2ccccc2c2[nH]c(C3COC3)nc12` [Compound 129], the EC50 on TLR7 was more than 100 µM; on hNLRP3, 20 to 100 µM; on TLR8, more than 100 µM.

As for `CC(C)(C)OC(=O)N1CCC(c2nc3c(N)nc4cc(-c5cccnc5)ccc4c3[nH]2)CC1` [Compound 221], the values for the EC50 at TLR7, on hNLRP3 and at TLR8 were more than 100 µM, 1 to 20 µM and more than 100 µM, respectively.

Regarding `Nc1nc2ccccc2c2[nH]c([C@H]3CC[C@@H](O)CC3)nc12` [Compound 134], the EC50 on TLR7 was more than 100 µM; on hNLRP3, 20 to 100 µM; at TLR8 it was more than 100 µM.

As for `Nc1nc2cc(NC(=O)c3ccccc3)ccc2c2[nH]c(CCCO)nc12` [Compound 180, N-[4-amino-2-(3-hydroxypropyl)-1H-imidazo[4,5-c]quinolin-7-yl]benzamide], the EC50 at TLR7, at hNLRP3 and on TLR8 was more than 100 µM throughout.

On to `Cc1ccc(-c2ccc3c(c2)nc(N)c2nc(CCCO)[nH]c23)cn1` [Compound 172, 3-[4-amino-7-(6-methylpyridin-3-yl)-1H-imidazo[4,5-c]quinolin-2-yl]propan-1-ol], for which the concentration giving a half-maximal response (EC50) on TLR7, at hNLRP3 and on TLR8 was more than 100 µM throughout.

In the case of `Nc1nc2cc(-n3cnc4ccccc43)ccc2c2[nH]c(CCCO)nc12` [Compound 182, 3-[4-amino-7-(benzimidazol-1-yl)-1H-imidazo[4,5-c]quinolin-2-yl]propan-1-ol], the EC50 at TLR7, on hNLRP3 and at TLR8 was more than 100 µM throughout.

With `Cn1c(CCCO)nc2c(N)nc3cc(-n4cccn4)ccc3c21` [Compound 108], the EC50 at TLR7 is more than 100 µM; on hNLRP3, not above 1 µM; on TLR8, more than 100 µM.

Regarding `COc1ccc2c(c1)nc(N)c1nc(CCCO)[nH]c12` [Compound 124], the EC50 was more than 100 µM on TLR7, 1 to 20 µM at hNLRP3 and more than 100 µM on TLR8.

`Nc1nc2ccccc2c2[nH]c([C@H]3CC[C@H](O)CC3)nc12` [Compound 135]: the EC50 was more than 100 µM on TLR7, 20 to 100 µM at hNLRP3 and more than 100 µM at TLR8.

Turning to `Nc1nc2cc(-c3cncc4ccccc34)ccc2c2[nH]c(CCCO)nc12` [Compound 192, 3-(4-amino-7-isoquinolin-4-yl-1H-imidazo[4,5-c]quinolin-2-yl)propan-1-ol], the EC50 at TLR7, at hNLRP3 and on TLR8 was more than 100 µM in each case.
